Some results are limits rather than exact numbers.

One may read the Ki as a measure of affinity in units of concentration, obtained from inhibition or displacement. A high value points to weaker binding.

One experiment deals with T1, Enkephalinase (Rattus norvegicus, UniProt P07861).
T1 construct: The enzyme is extracted from the microvilli fraction by using Triton X-100; from tissue; host or cells: rat kidney, microvilli fraction
T1 sequence (P07861 1-750): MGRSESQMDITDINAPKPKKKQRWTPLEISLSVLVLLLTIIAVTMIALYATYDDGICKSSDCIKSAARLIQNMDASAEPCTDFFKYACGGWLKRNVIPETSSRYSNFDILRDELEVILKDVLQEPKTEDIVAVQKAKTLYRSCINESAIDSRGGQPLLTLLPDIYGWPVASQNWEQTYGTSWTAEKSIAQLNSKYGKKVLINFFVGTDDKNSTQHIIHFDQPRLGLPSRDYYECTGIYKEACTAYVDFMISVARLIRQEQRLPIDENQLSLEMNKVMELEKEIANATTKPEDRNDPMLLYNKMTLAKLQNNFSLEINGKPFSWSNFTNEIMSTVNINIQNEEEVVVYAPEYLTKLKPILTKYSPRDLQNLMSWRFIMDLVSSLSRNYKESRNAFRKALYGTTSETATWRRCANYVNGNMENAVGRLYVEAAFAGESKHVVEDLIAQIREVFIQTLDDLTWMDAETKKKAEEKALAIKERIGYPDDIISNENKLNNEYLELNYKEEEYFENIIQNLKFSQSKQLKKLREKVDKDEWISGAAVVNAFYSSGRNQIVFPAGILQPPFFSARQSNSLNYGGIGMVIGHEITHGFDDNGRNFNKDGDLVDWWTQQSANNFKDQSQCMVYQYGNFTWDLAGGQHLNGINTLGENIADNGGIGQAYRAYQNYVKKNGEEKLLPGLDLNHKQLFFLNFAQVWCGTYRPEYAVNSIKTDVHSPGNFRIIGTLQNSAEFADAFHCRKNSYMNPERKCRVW
The experiment can be described thus: Enkephalinase inhibition, fluorometric enzyme assay. In kind it is biochemical. The conditions noted are these: enzyme partially purified from rat kidney; 12 µM dansyl-D-AlaGly(p-nitro)PheGly, 50mM HEPES buffer (pH 7.4), 25°C. The text has this:
Enkephalinase is partially purified from rat kidney. The enzyme is extracted from the microvilli fraction by using Triton X-100 according to the method of Malfroy and Schwartz [J.Biol.Chem. 259, 14365-14370 (1984)] or by using proteolytic treatment according to the method of Almenoff and Orlowski [Biochem. 22, 590-599 (1983)]. The enzyme is further purified by anion exchange chromatography (Mono QTM column, Pharmacia) using a Pharmacia FPLC system. The enzyme activity may be measured by the fluorometric methods of Florentin et al. [Anal.Biochem. 141, 62-69 (1984)] or of Almenoff and Orlowski [J.Neurochemistry 42, 151-157 (1984)]. […] The substrate (and inhibitor) is added from a concentrated stock soluticn in DMSO (up to 0.1 mL DMSO final volume). The enzyme in a small volume (approximately 0.1 μg of FPLC purified protein) is added to initiate the reaction and the rate of fluorescense increase is recorded continuously using a fluorometer (excitation at 339nm, emission at 562nm).

In the next experiment the target is ACE (Homo sapiens, UniProt P12821). Put plainly: ACE inhibition, spectrophotometric enzyme assay. The conditions noted are these: spectrophotometric substrate of Holmquist et al., buffer system of Ryan. It is filed as biochemical. The text has this: The enzymatic activity of ACE is monitored using the spectrophotometric substrate described by Holmquist et al. [Anal.Biochem. 95, 540-548 (1979)] and the buffer system described by Ryan [Methods of Enzymatic Analysis, 3rd ed., H. U. Bergmeyer, editor; vol. V, Verlag Chemie, Weinheim, 1983, pp. 20-34].
Sequence of ACE (P12821 30-1306, species assumed): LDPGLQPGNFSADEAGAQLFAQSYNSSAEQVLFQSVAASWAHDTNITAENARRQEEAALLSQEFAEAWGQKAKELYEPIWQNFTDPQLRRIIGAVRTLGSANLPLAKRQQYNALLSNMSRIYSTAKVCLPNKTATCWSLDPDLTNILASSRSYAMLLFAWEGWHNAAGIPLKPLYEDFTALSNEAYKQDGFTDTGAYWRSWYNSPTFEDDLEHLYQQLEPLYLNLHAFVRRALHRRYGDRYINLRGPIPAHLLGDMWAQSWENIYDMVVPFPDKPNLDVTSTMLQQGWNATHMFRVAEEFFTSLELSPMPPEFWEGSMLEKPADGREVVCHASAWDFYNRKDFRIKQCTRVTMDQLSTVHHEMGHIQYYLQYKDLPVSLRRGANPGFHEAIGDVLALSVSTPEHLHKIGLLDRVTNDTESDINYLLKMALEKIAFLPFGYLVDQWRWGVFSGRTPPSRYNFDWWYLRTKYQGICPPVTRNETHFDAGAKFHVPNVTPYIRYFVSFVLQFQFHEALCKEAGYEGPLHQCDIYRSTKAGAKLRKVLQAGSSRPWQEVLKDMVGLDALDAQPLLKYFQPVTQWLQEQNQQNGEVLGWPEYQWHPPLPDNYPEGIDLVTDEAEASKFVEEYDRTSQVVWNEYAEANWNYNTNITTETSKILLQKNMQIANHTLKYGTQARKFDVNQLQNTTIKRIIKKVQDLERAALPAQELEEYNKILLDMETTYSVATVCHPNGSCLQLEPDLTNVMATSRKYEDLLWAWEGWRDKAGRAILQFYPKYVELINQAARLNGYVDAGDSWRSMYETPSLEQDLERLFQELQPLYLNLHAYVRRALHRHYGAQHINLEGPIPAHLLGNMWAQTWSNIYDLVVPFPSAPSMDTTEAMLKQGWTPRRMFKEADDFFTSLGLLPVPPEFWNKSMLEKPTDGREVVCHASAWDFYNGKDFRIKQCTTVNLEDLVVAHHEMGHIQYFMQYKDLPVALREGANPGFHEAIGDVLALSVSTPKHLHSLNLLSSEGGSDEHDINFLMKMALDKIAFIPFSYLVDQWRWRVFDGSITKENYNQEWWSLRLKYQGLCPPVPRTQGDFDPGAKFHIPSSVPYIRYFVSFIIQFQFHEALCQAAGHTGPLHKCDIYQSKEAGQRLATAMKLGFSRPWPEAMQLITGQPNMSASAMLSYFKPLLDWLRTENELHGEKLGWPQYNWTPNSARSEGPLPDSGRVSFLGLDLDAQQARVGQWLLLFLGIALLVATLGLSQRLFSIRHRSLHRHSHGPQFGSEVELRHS

Consider `O=C(CS)N[C@H]1Cc2ccccc2[C@H]2CCC[C@@H](C(=O)O)N2C1=O` (relative stereo) [27,855, [4S-[4α, 7α(R*), 12bβ]]-7-[(1-oxo-2-thio-ethyl)amino]-1,2,3,4,6,7,8,12b-octahydro-6-oxo-pyrido[2,1-a][2]benzazepine-4-carboxylic acid], for which the figures for the Ki at Enkephalinase and at ACE were 8 nM and 5 nM, respectively.

Turning to `O=C(N[C@H]1Cc2ccccc2[C@H]2COC[C@@H](C(=O)O)N2C1=O)[C@@H](S)Cc1ccccc1` (relative stereo) [101,519, [4S-[4α, 7α(R*), 12bβ]]-7-[(1-Oxo-2(S)-thio-3-phenylpropyl)amino]-1,2,3,4,6,7,8,12b-hexahydro-6-oxo-1 H-[1,4]-oxazino[3,4-a][2]benzazepine-4-carboxylic acid], the Ki at Enkephalinase was < 1 nM; at ACE, < 7 nM.

`O=C(N[C@H]1Cc2ccccc2[C@H]2CCC[C@@H](C(=O)O)N2C1=O)[C@H](S)Cc1ccccc1` (relative stereo) [101,628, [4S-[4α, 7α(R*), 12bβ]]-7-[(1-Oxo-2(R)-thio-3-phenylpropyl)amino]-1,2,3,4,6,7,8,12b-octahydro-6-oxo-pyrido[2,1-a][2]benzazepine-4-carboxylic acid]: the inhibition constant Ki was < 1 nM at Enkephalinase and 6.7 nM on ACE.

In the case of `O=C(N[C@H]1Cc2ccccc2[C@H]2CCC[C@@H](C(=O)O)N2C1=O)C(S)c1ccccc1` (relative stereo) [101,804, [4S-[4α, 7α(R*), 12bβ]]-7-[(1-Oxo-2-thio-2-phenylethyl)amino]-1,2,3,4,6,7,8,12b-octahydro-6-oxo-pyrido[2,1-a][2]benzazepine-4-carboxylic acid], the Ki at Enkephalinase worked out at 1 nM; at ACE it was 2.1 nM.

Turning to `CC(=O)S[C@@H](Cc1ccccc1)C(=O)N[C@H]1Cc2ccccc2[C@H]2COC[C@@H](C(=O)O)N2C1=O` (relative stereo) [102,179, [4S-[4α, 7α(R*), 12bβ]]-7-[(1-Oxo-2(S)-acetylthio-3-phenylpropyl)amino]-1,2,3,4,6,7,8,12b-hexahydro-6-oxo-1H-[1,4]oxazino[3,4-a][2]benzazepine-4-carboxylic acid], the inhibition constant (Ki) is < 1 nM on Enkephalinase and < 7 nM at ACE.

As to `O=C(N[C@H]1Cc2ccccc2[C@H]2CCC[C@@H](C(=O)O)N2C1=O)[C@@H](S)Cc1ccccc1` (relative stereo) [100,173, [4S-[4α, 7α(R*), 12bβ]]-7-[(1-oxo-2(S)-thio-3-phenylpropyl)amino]-1,2,3,4,6,7,8,12b-octahydro-6-oxo-pyrido[2,1-a][2]benzazepine-4-carboxylic acid], the inhibition constant (Ki) was < 1 nM at Enkephalinase and 0.74 nM at ACE.

As for `O=C(N[C@H]1Cc2ccccc2[C@H]2CC[C@@H](C(=O)O)N2C1=O)[C@H](S)Cc1ccccc1` (relative stereo) [100,919, [6α(R*), 11bβ]-6-[(S)-(1-oxo-2(R)-thio-3-phenylpropyl)amino]-1,2,3,5,6,7,11b-heptahydro-5-oxo-pyrrolo[2,1-a][2]benzazepine-3(S)-carboxylic acid], the results for the inhibition constant Ki on Enkephalinase and at ACE were < 1 nM and 1 nM, respectively.
